Laboratory results published in patent US10393744B2, “Peptides for targeting colorectal cancer, and medical use thereof” (UNIVERSITY OF ULSAN FOUNDATION FOR INDUSTRY COOPERATION, priority 2014, dated 2019).
“Also recorded” adds a separate entry of the source.

What was measured:
[1] = test system: colorectal cancer tissue of radio-resistant case (case C65) and radio-sensitive case (case C87); assay: Crossover in vivo imaging of B5 peptide-expressing phage in 4 populations (Example 5); parameters: species or system mouse; conditions: 4 populations (C65 and C87, irradiated and non-irradiated); tail vein injection, images until 7th day; compared with Cy5.5 dye and empty phage
Procedure: Among the various peptide-expressing phages selected from the above, the in vivo imaging was attempted again for a B5 peptide, which is a peptide sequence screened only from the irradiated population in the radio-resistant case (case C65). At the same time, to confirm the responsiveness in control groups other than the population of interest, a crossover experiment was carried out. In detail, in the presence of differences in irradiation between the radio-sensitive case and the radio-resistant case of Example 1, the in vivo imaging was carried out to determine the targeting of the B5 peptide sequence in 4 populations in total. Here, the irradiated population of case C65 was set as an experimental group while the non-irradiated population of case C65 and all the populations of case C87 were set as control groups. In the same manner as in Example 4, peptide-expressing phages were amplified and a process of linking a Cy5.5 fluorescent probe was carried out. Then, through the tail vein injection in each population, images thereof were observed until the end of the last 7th day. […]

[2] = test system: radio-resistant colorectal cancer patient case (C65) cancer tissue; assay: Immunohistochemical staining of extracted cancer tissues with anti-M13 antibody (Example 6); type: in vivo, mouse; conditions: cancer tissues of each population extracted after imaging
Procedure: To verify histological targeting ability of the B5 peptide sequence verified in Example 5, the imaging of the B5 peptide sequence was obtained. Then, cancer tissues of each population were extracted to prepare paraffin blocks and slices. In detail, (1) the extracted cancer tissues were immersed in a formaldehyde solution at room temperature for 24 hours in terms of for immobilization. Then, following a dehydration process, paraffin was added to the solution through penetration to form paraffin blocks. Afterwards, a microtome was used to manufacture slices having a thickness of 3 μm. To perform real immunohistological staining, (2) following a deparaffinization process performed on the slices, (3) an unmasking process was performed so that structures of various proteins immobilized to the tissue slices were recovered to restore sites where antibodies normally bind. Sequentially, (4) a blocking process was performed using a 5% BSA solution, (5) primary antibodies were bound (wherein the antibodies used herein were anti-mouse M13 IgG recognizing M13 phage capsid proteins), (6) and secondary antibodies were bound while HRP was bound. Afterwards, (7) sites where phages were present were stained using DAB development, (7) the nuclei […] were stained with hematoxylin, and (8) a dehydration process was performed thereon. […]

[3] = test system: radio-sensitive colorectal cancer tissue (radio-sensitive case 1, other patient); assay: In vivo imaging of B5 peptide-expressing phage in other patients' colorectal cancer tissue (Example 7); parameters: species or system mouse; conditions: other patient's radio-sensitive tissue, with and without irradiation
Procedure: (§1) In detail, by extending the crossover experiment verified in Example 4, radio-sensitive case 1 and radio-resistant case 1 regarding other colorectal cancer tissues of a patient characterized as adenocarcinoma were introduced in addition to the radio-sensitive case and the radio-resistant case of Example 1. In the same manner as in Example 4, the B5 peptide-expressing phages were amplified and a process of linking a Cy5.5 fluorescent probe was carried out. Regarding the confirmation of the targeting ability of the B5 peptide, the in vivo imaging was used for observation in the same manner as in Example 5. […] In detail, the targeting ability of the B5 peptide sequence targeting a factor inducing resistance against radiation during radiation therapy in Example 6 was also verified in other colorectal cancer tissues of a radio-resistant patient, thereby confirming the possibility of the B5 peptide sequence as a sequence that is responsive to cancer microenvironments causing induction of resistivity during radiotherapy on colorectal cancer. However, in the patients having radio-sensitive colorectal cancer, it was clearly confirmed that the B5 peptide sequence, as a peptide sequence showing no targeting ability regardless of irradiation, was a sequence selectively tracing a radio-resistant factor. […]

[4] = test system: radio-resistant colorectal cancer tissue (radio-resistant case 1, other patient); assay: as above; parameters: species or system mouse; conditions: other patient's radio-resistant tissue, with and without irradiation
Procedure: as §1

[5] = test system: Radio-resistant colorectal cancer tissue of patient (case C65); assay: In vivo/ex vivo imaging and phage elution of Cy5.5-labeled peptide-expressing phages in mouse model transplanted with patient's colorectal cancer tissue (Example 4); parameters: species or system nude mouse; conditions: case C65, irradiated population (2 Gy)
Excerpt: Then, the distributed cancer tissue was kept in a specific preservative solution and transferred directly to an animal chamber, so as to maintain a state in which the cancer tissue was not separated from a patient yet. After an NOD/SCID mouse was anesthetized via intraperitoneal injection of anesthetics, the cancer tissue was cut into pieces each having a size of 3×3 mm. Next, each of both flanks of the NOD/SCID mouse was transplanted with a piece of the cut cancer tissues, and sutured. The NOD/SCID mouse was then recovered on a heating pad for about 2 hours (conditions of the preservative solution: HBSS containing 100 IU/ml penicillin, 100 μg/ml streptomycin, 100 μg/ml gentamicin, 2.5 μg/ml amphotericin B, and 5% fetal bovine serum). After completion of the transplantation, the NOD/SCID mouse was raised until tumors were formed. Meanwhile, the formation and growth of tumors were checked at least once a week. When the transplanted cancer tissues grew to a size of at least 500 mm^3, an extraction process was performed thereon. Then, the extracted cancer tissues were each cut into pieces each having a size of 3×3 mm for subculturing. A nude mouse was anesthetized via intraperitoneal injection of anesthetics, and a piece of the cut cancer tissues was transplanted subcutaneously on the right thigh of the nude mouse. A transplantation site was changed from the flank to the thigh so that irradiation can be locally done without affecting other organs during irradiation. That is, a finally used mouse model transplanted with a patient's colorectal cancer tissue in the present invention was a mouse model established in a way that a cancer tissue that underwent subculturing four times was re-transplanted to form a cancer tissue. When the size of the cancer tissue was increased to about 250 mm^3, only the cancer tissue was irradiated with 2 grays (Gy) of radiation. After having recovery time for no longer than 24 hours, in vivo peptide screening was performed. Here, a non-irradiated population, which is a control group, was also subjected to screening in a separate manner.
In detail, regarding in vivo imaging verification, the peptide-expressing phage was amplified, and a process of linking a fluorescent probe (Cy5.5) was performed. In particular, 1 μg/μl of N-hydroxysuccinimide esters of Cy5.5 (Amersham) was added to 1 mL of bicarbonate buffer (pH 8.3) having the phage concentration of 10^12 plaque forming units (pfu), and then, in a condition where a dark environment was maintained, a phage-surface protein was linked to the Cy5.5 fluorescent probe at room temperature for 3 hours. That is, amine groups of the phage-surface protein were chemically linked to N-hydroxysuccinimide esters of the Cy5.5 fluorescent probe via a covalent bond. The peptide-expressing phages to which the Cy5.5 fluorescent probe was linked were each obtained by precipitation with 170 μl of 20% (w/v) PEG 8000/2.5 M NaCl solution and purification. To determine a proportion of the Cy5.5 fluorescent probe linked to each of the finally obtained phage samples, an IVIS spectrum imaging system (Xenogen) was used for measurement, and region of interest (ROI) values were determined using the software program of a corresponding device.
In addition, on the last day of the in vivo imaging, the cancer tissues were each extracted, to thereby obtain ex vivo images thereof.

TPSFSKI [B5]
targeting ability by in vivo imaging (crossover experiment) [1]: specific binding of a B5 peptide sequence only to an irradiated population in radio-resistant case; also recorded: only the irradiated population of the radio-resistant case (case C65) has exhibited excellent targeting ability
histological targeting ability (immunohistochemical staining of phage) [2]: excellent targeting ability; also recorded: specifically bound only to the irradiated population in the radio-resistant colorectal cancer patient case (C65)
targeting ability by in vivo imaging [3]: did not show any targeting ability regardless of irradiation
targeting ability by in vivo imaging [4]: exhibited targeting ability only in the case of irradiation
in vivo ROI ([5]; Cy5.5 fluorescence total flux standardized to Cy5.5 dye control): 4.07
pfu/mg (concentration of eluted phages relative to weight of cancer tissue) ([5]; extracted cancer tissue): 209.47 pfu/mg
ex vivo ROI ([5]; extracted cancer tissue, standardized to Cy5.5 dye control): 2.43
